Data published in patent publication US6737383B1, “Herbicidal oxadiazolidines” (priority 1999, dated 2004).

Legend:
guineagrass = test: Test D guineagrass; format: in vivo, Panicum maximum; details: Preemergence, 0 to 100 scale
Procedure, shortened: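 Values are visual plant-response ratings (0 no injury, 100 complete control) recorded 14 to 21 days after herbicide treatment, using a non-phytotoxic solvent mixture containing surfactant. Preemergence applications went to the surface of pots holding freshly sown seed in sandy loam.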

goosegrass = test: Test D goosegrass; format: in vivo, Eleusine indica; details: Preemergence, 0 to 100 scale
Text: (§1) Seeds, tubers, or plant parts of Alexandergrass (Brachiaria plantaginea), bermuda-grass (Cynodon dactylon), common pursiane (Portulaca oleracea), common ragweed (Ambrosia elatior), common groundsel (Senecio vulgaris), dallisgrass (Paspalum dilatatum), goosegrass (Eleusine indica), guineagrass (Panicum maximum), itchgrass (Rottboellia exaltata), Johnson grass (Sorghum halepense), large crabgrass (Digitaria sanguinalis), pitted morningglory (Ipomoea lacunosa), purple nutsedge (Cyperus rotundus), sandbur (Cenchrus echinatus), sourgrass (Trichachne insularis), Spanishneedles (Bidens bipinnata), surinam grass (Brachiaria decumbens) and tall mallow (Malva sylvestris) were planted into greenhouse pots of flats containing greenhouse planting medium. Plant species were grown in separate pots or individual compartments. Preemergence applications were made within one day of planting the seed or plant part.
(§2) Test chemicals were formulated in a non-phytotoxic solvent mixture which included a surfactant and applied preemergence to the surface of the pot containing seeds in a sandy loam soil. Untreated control pots and treated pots were placed in the greenhouse for growth and visually evaluated for injury 14 to 21 days after herbicide application. Plant response ratings, summarized in Table C, are based on a 0 to 100 scale where 0 is no injury and 100 is complete control. A dash (−) response means no test result.

itchgrass [1] = test: Test D itchgrass; format: in vivo, Rottboellia exaltata; details: Preemergence, 0 to 100 scale
Procedure, shortened: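 Scoring used a 0–100 visual injury scale, with 0 meaning no effect and 100 complete control, assessed 14–21 days after application alongside untreated pots. Preemergence treatments went onto sandy loam surfaces of separately potted seeds within a day of sowing.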

common groundsel = test: Test D common groundsel; format: in vivo, Senecio vulgaris; details: Preemergence, 0 to 100 scale
Text: as §1, §2

Spanishneedles = test: Test D Spanishneedles; format: in vivo, Bidens bipinnata; details: Preemergence, 0 to 100 scale, 0 no injury, 100 complete control
Text: as §1, §2

barnyardgrass = test: Test A barnyardgrass; format: in vivo, Echinochloa crus-galli; details: 0 to 10 scale where 0 is no effect and 10 is complete control
Experimental: Seeds of barnyardgrass (Echinochloa crus-galli), crabgrass (Digitaria spp.), morningglory (Ipomoea spp.), and velvetleaf (Abutilon theophrasti) were planted into a sandy loam soil and treated preemergence by soil drench with test chemicals formulated in a non-phytotoxic solvent mixture which includes a surfactant At the same time, these crop and weed species were also treated postemergence sprayed to runoff, with test chemicals formulated in the same manner.
Plants ranged in height from two to eighteen cm and were in the one to two leaf stage for the postemergence treatment. Treated plants and untreated controls were maintained in a greenhouse for approximately eleven days, after which all treated plants were compared to untreated controls and visually evaluated for injury. Plant response ratings, summarized in Table A, are based on a 0 to 10 scale where 0 is no effect and 10 is complete control.

windgrass = test: Test E windgrass; format: in vivo, Apera spica-venti; details: Postemergence, Rate 62 g/ha; 0 to 100 scale
Procedure, shortened: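 Compounds formulated in non-phytotoxic solvent mixture with surfactant; for postemergence, sprayed on plants at 1- to 4-leaf stage grown in 60:40 sandy loam/greenhouse potting mix. Kept in greenhouse ~21 to 28 days, then visually rated against untreated controls.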

Green foxtail [2] = test: Test D green foxtail; format: in vivo; details: Postemergence, 0 to 100 scale, 0 no injury, 100 complete control
Green foxtail [3] = test: Test D green foxtail; format: in vivo; details: Postemergence, 0 to 100 scale, 0 no injury, 100 complete control; remark: listed apart in the source
large crabgrass = test: Test D large crabgrass; format: in vivo, Digitaria sanguinalis; details: Postemergence, 0 to 100 scale
itchgrass [4] = test: Test D itchgrass; format: in vivo, Rottboellia exaltata; details: Postemergence, 0 to 100 scale
bermuda-grass = test: Test D bermudagrass; format: in vivo, Cynodon dactylon; details: Postemergence, 0 to 100 scale
Green foxtail [5] = test: Test D green foxtail; format: in vivo; details: Rate 250 g/ha; Postemergence; 0 to 100 scale
sandbur = test: Test D sandbur; format: in vivo, Cenchrus echinatus; details: Postemergence, 0 to 100 scale
common ragweed = test: Test D common ragweed; format: in vivo, Ambrosia elatior; details: Postemergence, 0 to 100 scale
purple nutsedge = test: Test D purple nutsedge; format: in vivo, Cyperus rotundus; details: Postemergence, 0 to 100 scale
[6] = Rate 32 g/ha, 0 no injury, 100 complete control
[7] = Rate 64 g/ha, 0 no injury, 100 complete control
[8] = Rate 125 g/ha, 0 no injury, 100 complete control
[9] = Rate 16 g/ha, 0 no injury, 100 complete control

Cc1cccc(C)c1-n1c(=O)on(C(=O)N(c2ccc(F)cc2F)C(C)C)c1=O [Compound 28]
98: Plant response rating, Guineagrass (guineagrass; Rate 250 g/ha) | Plant response rating, Goosegrass (goosegrass; [8])
60: Spanishneedles plant response rating (Spanishneedles; Rate 64 g/ha)
75: Plant response rating, Guineagrass (guineagrass; [8]) | Spanishneedles plant response rating (Spanishneedles; Rate 125 g/ha)
40: Plant response rating, Guineagrass (guineagrass; [6]) | Plant response rating, Itchgrass (itchgrass [1]; [8]) | Plant response rating, Itchgrass (itchgrass [1]; Rate 250 g/ha)
20: Plant response rating, Itchgrass (itchgrass [1]; [7])
0: Plant response rating, Goosegrass (goosegrass; [6]) | Plant response rating, Itchgrass (itchgrass [1]; [6]) | Plant response rating, Com. groundsel (common groundsel; [6]) | Plant response rating, Com. groundsel (common groundsel; [7]) | Plant response rating, Com. groundsel (common groundsel; [8]) | Plant response rating, Com. groundsel (common groundsel; Rate 250 g/ha) | Plant response rating, Spanishneedles (Spanishneedles; Rate 32 g/ha)
100: Plant response rating, Goosegrass (goosegrass; Rate 250 g/ha)
65: Plant response rating, Guineagrass (guineagrass; [7])
85: Plant response rating, Goosegrass (goosegrass; [7])

CCOC(=O)Cn1c(=O)on(C(=O)N(c2ccc(F)cc2)C(C)C)c1=O [Compound 128]
0: Plant response rating, Barnyardgrass (barnyardgrass; Postemergence, Rate 1000 g/ha) | Plant response rating, Barnyardgrass (barnyardgrass; Pre-emergence, Rate 2000 g/ha)

CCn1c(=O)on(C(=O)N(c2ccc(F)cc2F)C(C)C)c1=O [Compound 116]
70: Plant response rating, Windgrass (windgrass)

CC(C)N(C(=O)n1oc(=O)n(C2CC2)c1=O)c1ccccc1 [Compound 243]
60: Plant response rating, Bermudagrass (bermuda-grass; [6]) | Plant response rating, C. ragweed (common ragweed; Rate 250 g/ha)
70: Plant response rating Large crabgrass (large crabgrass; [6])
20: Plant response rating, Bermudagrass (bermuda-grass; [9]) | Plant response rating, Sandbur (sandbur; [6])
0: Plant response rating Large crabgrass (large crabgrass; [9]) | Plant response rating, Itchgrass (itchgrass [4]; [9]) | Plant response rating, Itchgrass (itchgrass [4]; [6]) | Plant response rating, Itchgrass (itchgrass [4]; [7]) | Plant response rating, C. ragweed (common ragweed; [9]) | Plant response rating, C. ragweed (common ragweed; [6]) | Plant response rating, Purple nutsedge (purple nutsedge; [9]) | Plant response rating, Purple nutsedge (purple nutsedge; [6]) | Purple nutsedge plant response rating (purple nutsedge; [7])
10: Plant response rating, Green foxtail (Green foxtail [2]; Rate 16 g/ha) | Plant response rating, Itchgrass (itchgrass [4]; [8]) | Plant response rating, Sandbur (sandbur; [9]) | Plant response rating, C. ragweed (common ragweed; [7]) | Plant response rating, C. ragweed (common ragweed; [8]) | Purple nutsedge plant response rating (purple nutsedge; [8])
100: Plant response rating, Green foxtail (Green foxtail [2]; Rate 32 g/ha) | Plant response rating, Green foxtail (Green foxtail [3]; Rate 64 g/ha) | Plant response rating, Green foxtail (Green foxtail [3]; Rate 125 g/ha) | Plant response rating Large crabgrass (large crabgrass; [7]) | Plant response rating Large crabgrass (large crabgrass; [8]) | Plant response rating Large crabgrass (large crabgrass; Rate 250 g/ha) | Plant response rating, Itchgrass (itchgrass [4]; Rate 250 g/ha) | Plant response rating, Bermudagrass (bermuda-grass; [7]) | Plant response rating, Bermudagrass (bermuda-grass; [8]) | Plant response rating, Bermudagrass (bermuda-grass; Rate 250 g/ha) | Plant response rating, Green foxtail (Green foxtail [5]) | Plant response rating, Sandbur (sandbur; Rate 250 g/ha) | Plant response rating, Purple nutsedge (purple nutsedge; Rate 250 g/ha)
30: Sandbur plant response rating (sandbur; [7]) | Sandbur plant response rating (sandbur; [8])
